Read-outs that look alike come from different tables or passages of the source.
Tested on: MDA-MB-231 breast cancer cells
Assay: Quantitative scratch-wound
Assay type: cell-based
Conditions: Homo sapiens

C[C@@H]1O[C@@H](O[C@H]2C[C@@H](O)[C@]3(CO)[C@H]4[C@H](O)C[C@]5(C)[C@@H](C6=CC(=O)OC6)CC[C@]5(O)[C@@H]4CC[C@]3(O)C2)[C@H](O)[C@H](O)[C@H]1O [Compound 1, ouabain]
IC50 (MDA-MB-231, read-out: Cell migration IC50): 173 nM | IC50 (MDA-MB-231, read-out: cell migration): 173 nM

Source: article PMC4340362 (ACS Chemical Biology, 2014)
